From patent EP0071175A2, “Phenylalkyloxirane-carboxylic acids, process for their preparation, their use and medicines containing them” (Byk Gulden Lomberg Chemische Fabrik GmbH, priority 1981, dated 1983) come the findings set out here.

One data set in a line: in vivo. As to conditions: mouse, po, read-out: Akute Toxizität Maus p.o. LD50. An excerpt: (§1) In Tabelle I werden Untersuchungen des Einflusses von Vertretern der erfindungsgemäßen Verbindungen auf die Blutglucosekonzentration nüchterner, stoffwechselgesunder Ratten wiedergegeben. Spalte A gibt jeweils die maximale Senkung der Blutglucosekonzentration nüchterner Ratten (in % bezogen auf die Kontrollgruppe) an, die im Laufe von 6 Stunden nach einmaliger oraler Applikation von 0,6 mmöl Substanz/kg Körpergewicht be-, obachtet wird. In der Spalte B werden Daten zur akuten Toxizität (LD50; Maus p.o.) wiedergegeben.
2. Bestimmung der Toxizität .
Die Toxizitätsuntersuchungen werden an weiblichen NMRI-Mäusen (Körpergewicht 22-26 g) durchgeführt. Die Tiere (5 Tiere pro Dosis) erhalten 18 Stunden vor der Behandlung das Futter (Altromin®) auf 50 g/50 Tiere reduziert und Wasser ad libitum. Verschiedene Dosen der Substanzen werden oral mittels Schlundsonde verabreicht (Volumen 10 ml/kg). Die Beobachtungsdauer beträgt 7 Tage.

The test system of data set [1] is nüchterner, stoffwechselgesunder Ratten. Kind of data set: Blood glucose determination after single oral application. As to conditions: maximal lowering vs. control group within 6 hours after single oral application of 0,6 mmol substance/kg body weight; fasted male rats. Type of data set: in vivo, Sprague-Dawley-Ratten.
Excerpt: as §1
1. Blutglucosebestimmung nach einmaliger oraler Applikation
Zur Verwendung kommen junge männliche Sprague-Dawley-Ratten (Körpergewicht 150-200 g). Die Haltung der Tiere (6 Tiere pro Dosis) erfolgt in Makrolon-Käfigen mit bis zu 4 Tieren pro Käfig (Raumtemperatur 23 °C, rel. Luftfeuchtigkeit 55 %, fester Tag/Nacht-Rythmus (12/12=h) Standarddiät Altromin®). Den Ratten wird 18 Stunden vor der 1. Blutentnahme das Futter entzogen. Wasseraufnahme erfolgt ad libitum. Blutentnahmen erfolgen unmittelbar vor und 2, 4 und 6 Stunden nach Substanzgabe durch Punktion aus dem retroorbitalen Plexus. Nach Enteiweißung mit Perchlorsäure wird die Blutglucosebestimmung mittels der bei Banauch et.al. [J.Clin.Chem.Clin.Biochem. 13, 101(1975)] beschriebener Glucose-Dehydrogenase-Methode mit Hilfe von kommerziellen Reagentien durchgeführt. Zum Vergleich wird jeweils eine mit reinem Lösungsmittel behandelte Kontrollgruppe mituntersucht (10 Tiere pro Kontrollgruppe).

On to `CCOC(=O)C1(CCCC(C)CCCc2ccccc2)CO1` (stereo not shown) [compound 6, 2-(4-Methyl-7-phenylheptyl)-oxiran-2-carbonsäureethylester], for which the LD50 in “in vivo” was above 500 mg/kg. The “Senkung der Blut-glucosekonzentration (in %) in vivo” value in data set [1] worked out at 35%.
Regarding `CCOC(=O)C1(CC(CC)CCCc2ccccc2)CO1` (stereo not shown) [compound 4, 2-(2-Ethyl-5-phenylpentyl)-oxiran-2-carbonsäureethylester], the “Senkung der Blut-glucosekonzentration (in %) in vivo” value in data set [1] worked out at 25%.
For `CCOC(=O)C1(CCCCC(C)c2ccccc2)CO1` (stereo not shown) [compound 7, 2-(5-Methyl-5-phenylpentyl)-oxiran-2-carbonsäureethylester], the “Senkung der Blut-glucosekonzentration (in %) in vivo” value in data set [1] is listed as 22%.
Regarding `CCOC(=O)C1(CCCC(C)Cc2ccccc2)CO1` (stereo not shown) [compound 3, 2-(4-Methyl-5-phenylpentyl)-oxiran-2-carbonsäureethylester], the LD50 in “in vivo” was above 1000 mg/kg. The “Senkung der Blut-glucosekonzentration (in %) in vivo” value in data set [1] is given as 45%.
For `CCOC(=O)C1(CCCC(C)Cc2ccc(Cl)cc2)CO1` (stereo not shown) [compound 5, 2-[5-(4-Chlorphenyl)-4-methylpentyl]-oxiran-2-carbonsäure-ethylester] the same measures were around 500 mg/kg and 70%.
For `[H]/N=C(/N)N/C(=N/[H])NCCc1ccccc1` [compound 2, Phenformin, reference compound], the “Senkung der Blut-glucosekonzentration (in %) in vivo” value in data set [1] is on record as 6%.
For `CCCCNC(=N)NC(=N)N` [compound 1, Buformin, reference compound], in data set [1], the “Senkung der Blut-glucosekonzentration (in %) in vivo” value is reported as 8%.

By LD50 is commonly meant the dose expected to kill half of the subjects tested.
